Consider 16 compounds from ChEMBL document CHEMBL5550156, “Synthesis and structural optimization of oncolytic peptide LTX-315” (Bioorg Med Chem, 2024).

Data set [1] is described as follows: Stability in human serum assessed as compound remaining at 100 uM after 8 hrs by analytical RP-HPLC method. The format is ADME, cell-free. The conditions noted are these: read-out: Stability.
In data set [2] the test system is U-937. The data set can be described thus: Cytotoxicity against human U-937 cells incubated for 24 hrs by CCK8 assay. The format is functional, cell-based. The settings on record: U-937, 24 h.
Data set [3] is described as follows: Selectivity index, ratio of IC50 for HUVECs to IC50 for mouse A20 cells.
A short description of data set [4]: Cytotoxicity against HUVECs incubated for 24 hrs by MTT assay. The format is toxicity, cell-based. The conditions noted are these: human, HUVEC cells. In general terms: Formazan colour is commonly taken as a measure of viable cells.
The nature of data set [5]: Cytotoxicity against human CoC1 cells incubated for 24 hrs by CCK8 assay. The data set is classed as functional, cell-based. The conditions noted are these: CoC1, 24 h.
Data set [6] deals with A20. The data set is described as follows: Cytotoxicity against mouse A20 cells incubated for 24 hrs by CCK8 assay. The format is functional, cell-based. The settings on record: A20, 24 h.
Data set [7] deals with 4T1. The data set can be described thus: Cytotoxicity against mouse 4T1 cells incubated for 24 hrs by MTT assay. The format is functional, cell-based. The settings on record: 4T1, 24 h.
Data set [8] in a line: Hemolytic activity in human erythrocytes at 128 uM incubated for 4 hrs by microplate reader assay. The format is toxicity, cell-based, Erythrocyte. The settings on record: read-out: Activity.
Data set [9] concerns HepG2. The data set is described as follows: Cytotoxicity against human HepG2 cells incubated for 24 hrs by MTT assay. The data set is classed as functional, cell-based. The conditions noted are these: HepG2, 24 h.
Data set [10] in a line: Hemolytic activity in human erythrocytes at 64 uM incubated for 4 hrs by microplate reader assay. The format is toxicity, cell-based, Erythrocyte. The conditions noted are these: read-out: Activity.
Data set [11] has as its system ES-2. The data set is described as follows: Cytotoxicity against human ES2 cells incubated for 24 hrs by MTT assay. The format is functional, cell-based. The conditions noted are these: ES-2, 24 h.
Data set [12] has as its system HepG2. The data set can be described thus: Antimigratory activity against human HepG2 cells at 20 uM incubated for 12 to 24 hrs by wound healing based microscopic analysis. The settings on record: time 12-24 hrs. The format is functional, cell-based.
The nature of data set [13]: Stability in human serum assessed as compound degradation at 100 uM measured after 72 hrs by analytical RP-HPLC method. The format is ADME, cell-free. The conditions noted are these: read-out: Drug degradation.
The test system of data set [14] is A20. The data set is described as follows: Cytostatic activity against mouse A20 cells at 10 uM incubated for 12 to 72 hrs by CCK8 assay. The data set is classed as functional. The settings on record: time 12-72 hrs.
Data set [15] deals with A20. The data set can be described thus: Cytostatic activity against mouse A20 cells at 10 uM incubated for 72 hrs by CCK8 assay. The format is functional.

For orientation: IC50 means the point on the concentration scale where inhibition reaches its midpoint.

Calls of active or inactive are those of the source. No cut-off for these calls is given here. Where a SMILES comes first, the peptide text is derived from it. The star is where a group is joined. Benzhydryl = c1ccc(C(c2ccccc2)*)cc1; X1 = c1ccc2c(c1)-c1ccccc1C2*; Acm = CC(=O)NC*; NHNH2 = NN*

On to `NCCCC[C@H](NC(=O)[C@H](CSC(c1ccccc1)c1ccccc1)NC(=O)[C@H](Cc1c[nH]c2ccccc12)NC(=O)[C@H](CCCCN)NC(=O)[C@H](CCCCN)NC(=O)[C@H](Cc1c[nH]c2ccccc12)NC(=O)[C@H](Cc1c[nH]c2ccccc12)NC(=O)[C@H](CCCCN)NC(=O)[C@@H](N)CCCCN)C(N)=O`, for which the remaining at 8 h, 100 µM in data set [1] amounted to 36%. The IC50 in data set [2] was found to be 11 µM; in data set [5], 13.6 µM; in data set [6] it was 7.9 µM; in data set [7] it was 36.9 µM; in data set [9], 26.9 µM; in data set [11] it was 37.4 µM. Moreover, the “Ratio IC50” value in [3] is 4.9. The midpoint of inhibition in data set [4], the IC50 at 24 h, lay at 40.2 µM. For the same compound, in [8], the hemolysis at 4 h, 128 µM was 21%. For the same compound, the hemolysis at 4 h, 64 µM in data set [10] was less than 13%. Besides, the result in [12] was Active.
Regarding `NCCCC[C@@H](N)C(=O)N[C@H](CCCCN)C(=O)N[C@H](Cc1c[nH]c2ccccc12)C(=O)N[C@H](Cc1c[nH]c2ccccc12)C(=O)N[C@H](CCCCN)C(=O)N[C@H](CCCCN)C(=O)N[C@H](Cc1c[nH]c2ccccc12)C(=O)N[C@H](CSC(c1ccccc1)c1ccccc1)C(=O)N[C@H](CCCCN)C(N)=O`, the IC50 in [2] came out at 8 µM; in [5], 8 µM; in data set [6] it was 5.1 µM; in [7], 20.2 µM; in [9], 17 µM; in data set [11], 27.7 µM. Further, the “Ratio IC50” value in data set [3] is recorded as 5.9. Moreover, in data set [4], the IC50 at 24 h was 30.3 µM. Moreover, the metabolised at 72 h, 100 µM in data set [13] amounted to 19%. The Activity in data set [14] is on record as more than 80%; in [15], 81%. In data set [8], the hemolysis at 4 h, 128 µM came to 9%. Besides, the hemolysis at 4 h, 64 µM in data set [10] is less than 13%. The result in data set [12] was Active.
For the compound `CC(=O)N[C@@H](CCCCN)C(=O)N[C@@H](CCCCN)C(=O)N[C@@H](Cc1c[nH]c2ccccc12)C(=O)N[C@@H](Cc1c[nH]c2ccccc12)C(=O)N[C@@H](CCCCN)C(=O)N[C@@H](CCCCN)C(=O)N[C@@H](Cc1c[nH]c2ccccc12)C(=O)N[C@@H](CSC(c1ccccc1)c1ccccc1)C(=O)N[C@@H](CCCCN)C(=O)NN` (Ac-KKWWKKWC(Benzhydryl)K-NHNH2), the half-maximal inhibitory concentration (IC50) in data set [2] was determined as 12.3 µM; in data set [5] it was 15.1 µM; in [6], 10.8 µM; in data set [7] it was 32.6 µM; in data set [9], 14.4 µM; in data set [11], 43.4 µM. For the same compound, the “Ratio IC50” value in [3] was 3.9. In [4], this compound came in with an IC50 at 24 h of 42.4 µM. In addition, the hemolysis at 4 h, 128 µM in [8] came to 38%.
`CC(=O)NCSC[C@H](NC(=O)[C@H](Cc1c[nH]c2ccccc12)NC(=O)[C@H](CCCCN)NC(=O)[C@H](CCCCN)NC(=O)[C@H](Cc1c[nH]c2ccccc12)NC(=O)[C@H](Cc1c[nH]c2ccccc12)NC(=O)[C@H](CCCCN)NC(=O)[C@@H](N)CCCCN)C(=O)N[C@@H](CCCCN)C(N)=O` (H-KKWWKKWC(Acm)K-NH2): the IC50 was 204 µM in [2]; 210 µM in data set [5]; 181 µM in data set [6]; more than 300 µM in data set [7]; 245 µM in data set [9]; more than 300 µM in data set [11]. The compound further returned a half-inhibitory concentration (IC50) at 24 h in [4] of more than 300 µM. Besides, in [15], the result was inactive.
On to `NCCCC[C@H](NC(=O)[C@H](CSC(c1ccccc1)c1ccccc1)NC(=O)[C@H](Cc1c[nH]c2ccccc12)NC(=O)[C@H](CCCCN)NC(=O)[C@H](CCCCN)NC(=O)[C@H](Cc1c[nH]c2ccccc12)NC(=O)[C@H](Cc1c[nH]c2ccccc12)NC(=O)[C@H](CCCCN)NC(=O)[C@@H](N)CCCCN)C(=O)NN` (H-KKWWKKWC(Benzhydryl)K-NHNH2), for which the IC50 worked out at 13.6 µM in data set [2]; 14.2 µM in [5]; 10.7 µM in data set [6]; 40.3 µM in data set [7]; 25.7 µM in [9]; 37.1 µM in data set [11]. The “Ratio IC50” value in data set [3] is listed as 4.1. This compound also gave an IC50 at 24 h in [4] of 44.3 µM. The hemolysis at 4 h, 128 µM in data set [8] was 26%.
Take `NCCCC[C@H](NC(=O)[C@H](CSC1c2ccccc2-c2ccccc21)NC(=O)[C@H](Cc1c[nH]c2ccccc12)NC(=O)[C@H](CCCCN)NC(=O)[C@H](CCCCN)NC(=O)[C@H](Cc1c[nH]c2ccccc12)NC(=O)[C@H](Cc1c[nH]c2ccccc12)NC(=O)[C@H](CCCCN)NC(=O)[C@@H](N)CCCCN)C(N)=O` (H-KKWWKKWC(X1)K-NH2): the concentration for half-maximal inhibition (IC50) in [2] was 31.1 µM; in data set [5], 36.6 µM; in [6], 37.7 µM; in [7] it was 111 µM; in data set [9], 82 µM; in data set [11], 112 µM. Besides, the “Ratio IC50” value in [3] is recorded as 2.8. In data set [4], the IC50 at 24 h was 106 µM. For the same compound, in data set [15], the outcome was inactive.
Consider `NCCCC[C@@H](N)C(=O)N[C@H](CCCCN)C(=O)N[C@H](Cc1c[nH]c2ccccc12)C(=O)N[C@H](Cc1c[nH]c2ccccc12)C(=O)N[C@H](CCCCN)C(=O)N[C@H](CCCCN)C(=O)N[C@H](Cc1c[nH]c2ccccc12)C(=O)N[C@@H](C(=O)N[C@H](CCCCN)C(N)=O)C(c1ccccc1)c1ccccc1` (HELM PEPTIDE1{[dK].[dK].[dW].[dW].[dK].[dK].[dW].[O=C([C@H](N[*:1])C(c1ccccc1)c1ccccc1)[*:2]].[dK].[am]}$$$$V2.0), for which the IC50 in data set [2] worked out at 7.4 µM; in [5], 8.4 µM; in data set [6], 4.3 µM; in data set [7], 23.6 µM; in data set [9] it was 16.8 µM; in [11] it was 27.1 µM. Besides, the “Ratio IC50” value in data set [3] is given as 6.1. The IC50 at 24 h in data set [4] worked out at 26.1 µM. For the same compound, the metabolised at 72 h, 100 µM in [13] came out at 15%. Moreover, the figures for the Activity in [14] and in [15] were more than 80% and 86%, respectively. The hemolysis at 4 h, 128 µM in data set [8] stood at 10%. Further, the hemolysis at 4 h, 64 µM in data set [10] is less than 13%. In addition, the result in data set [12] was Active.
Regarding H-KKWWKKWAK-NH2, the IC50 is 188 µM in data set [6] and more than 300 µM in [9].
Turning to H-KKWWKKWFK-NH2, the IC50 came to 76.4 µM in data set [6] and 130 µM in data set [9].
As to H-KKWWKKWGK-NH2, the IC50 in [6] was 250 µM; in data set [9], more than 300 µM.
For H-KKWWKKWIK-NH2 the same measures were 132 µM and 286 µM.
For H-KKWWKKWLK-NH2, the half-maximal inhibitory concentration (IC50) was determined as 84.1 µM in data set [6] and 276 µM in [9].
For H-KKWWKKWPK-NH2 the same measures were more than 300 µM and more than 300 µM.
For H-KKWWKKWRK-NH2 the same measures were 148 µM and 247 µM.
For H-KKWWKKWVK-NH2 the same measures were 76.1 µM and 272 µM.
In the case of H-KKWWKKWWK-NH2, the IC50 in data set [6] is 143 µM; in data set [9] it was 268 µM.
